Test results published in US11834680B2, “Single kidney cell-derived organoids” (Rutgers, The State University of New Jersey, priority 2017, dated 2023).

How the values were obtained:
[1] = tested on: cultured nephron progenitor cells; test: Effect of activating Wnt signaling on kidney organoid formation, shape and size; assay type: cell-based, human
Method: The organoids generated from multiple patient samples had various phenotypes during the different times of 2D culture. A similar diversity in phenotypes was also detected in the 3D culture stage. Moreover, the organoids formed in 3D culture had both spherical or branching shapes. When […] (1 μM) was added to the media as a pulse for 12 h then media was replaced with fresh media without CHIR, branching tubular shaped organoids increased. In another group of experiments, the effects of addition of 1× B27 supplement were examined.
The Wnt signaling pathway is known to trigger the initiation of nephron progenitor cell differentiation. The effects of activating Wnt signaling in organoid studies was examined. Cultured 2D and 3D cells were treated with a GSK3 inhibitor CHIR99021 (CHIR), which activates the canonical Wnt signaling pathway. […] On the other hand, branching tubular shaped organoids increased.

[2] = tested on: Nephrectomy-derived normal adjacent tissue (NAT) and RCC cells; test: Organoid forming efficiency (OFE) of kidney cells in 2D stage I / 3D Matrigel stage II culture; assay type: cell-based, human
Excerpt: The human kidney contains up to 2 million epithelial nephrons responsible for blood filtration. Regenerating the kidney requires the induction of the more than 20 distinct cell types required for excretion and the regulation of pH, and electrolyte and fluid balance. Herein is described the induction of progenitors for both collecting duct and nephrons via the directed differentiation of patient-derived normal and RCC cells derived from nephrectomy tissues. Under an IRB-approved protocol, nephrectomy specimens from high-risk RCC cases were collected and processed within 15 minutes of surgery. Areas containing tumor as deemed by the pathologist and normal adjacent tissue counterpart were microdissected. A 3D culture system fit for growth of kidney cells was first developed by isolating epithelial cells microdissected from primary RCC specimens. Qualified pathologists confirmed their renal origin from the corresponding H&E. Nephrectomy-derived normal adjacent tissue (NAT) and RCC cells were utilized to determine best conditions for generating organoids. A two-step methodology comprising a first phase of adult kidney stem cell enrichment, conducted in a 2D setting (stage I), followed by a second phase of organoid 3D growth obtained in pure matrigel chambers (stage II), was conducted. […] Stage I media included using either EGM2 or ADMED complete medium (with the addition of EGF, BFGF, IGF-1, VEGF, hydrocortisone, ascorbic acid, insulin, heparin, gentamicin, amphotericin-B, and 2% FBS).
Cells were placed in 3D droplet culture chambers in stage II complete media containing Matrigel, to mimic the basal lamina of the normal renal tissue, and growth factors in conditions that permits cellular self-organization of organoid forming cells. Kidney cells were embedded as single cells in 3D-well plates. Organoid formation was then followed microscopically daily for 2 weeks.

[3] = cultured 2D and 3D cells treated

Molecule: Cc1c[nH]c(-c2cnc(NCCNc3ccc(C#N)cn3)nc2-c2ccc(Cl)cc2Cl)n1 [CHIR99021]
- branching tubular shaped organoids ([1]; 1 μM added to the media as a pulse for 12 h, then fresh media): increased
- cell death [1, 3]: accompanied by cell death
- differentiation in cultured nephron progenitor cells [1, 3]: induced differentiation
- organoid size [1, 3]: smaller size organoids
- branching tubular shaped organoids ([1]; cultured 2D and 3D cells treated, concentration not given): increased

Molecule: IGF-1: Insulin Growth Factor 1, culture medium supplement
- organoid forming efficiency (OFE) ([2]; addition to the culture media): improved
- organoid forming efficiency (OFE) ([2]; doubling the IGF-1 dose (2×) in culture): did not increase

Molecule: Insulin: culture medium supplement
- organoid forming efficiency (OFE) ([2]; addition to the culture media): improved

Molecule: VEGF
- organoid forming efficiency (OFE) ([2]; addition to the culture media): improved

Molecule: heparin
- organoid forming efficiency (OFE) ([2]; addition to the culture media): improved
